# Experimental data as given in patent publication US20120207704A1 (priority 2011, published 2012).
# Tested on: DU-145 cells
# Type: cell-based, human
smiles,measurement,value
C=C1[C@@H](C)[C@H]2[C@H](Cc3ccccc3)NC(=O)[C@]23[C@H](OC(C)=O)/C=C/[C@@](C)(O)C(=O)[C@@H](C)C/C=C/[C@H]3[C@@H]1O [Cytochalasin-D],Effect on cell migration,did not migrate
same,"Relative Wound Density at 24 Hours, Mean",3.3 ± 0.2
same,"Relative Wound Density at 24 Hours, Percent Relative to Media",4%
